Laboratory results: patent publication USRE40901E1, “Taxane derivatives and processes for the preparation thereof” (Indena S.p.A., priority 1999, dated 2009)

Columns and labels:
[1] = test system: cancerous cells of breast, lung, ovary, colon, prostate, kidney, pancreas; assay: cytotoxic and anticancer activity against cancerous cells; assay type: cell-based; conditions: statement in words, no data
[2] = test system: cell lines expressing the MDR phenotype; assay: overcoming resistance of MDR cell lines; assay type: cell-based; conditions: statement in words, no data

CC(=O)O[C@H]1C(=O)[C@@]2(C)C([C@H](OC(=O)c3ccccc3)[C@]34OC(=O)O[C@H]3[C@H](OC(=O)[C@H](O)[C@H](CC(C)C)NC(=O)OC(C)(C)C)C(C)=C1C4(C)C)[C@]1(OC(C)=O)CO[C@@H]1C[C@H]2O (stereo partly drawn) [Compound (I), 13-(N-Boc-β-isobutylserinyl)-14β-hydroxybaccatine V, 1,14 carbonate]
cytotoxic and anticancer activities [1]: remarkable cytotoxic and anticancer activities
overcoming the resistance of cell lines expressing the MDR phenotype [2]: capable of overcoming the resistance
